Measurements reported in US20250090699A1, “FAP TARGETING CYCLIC PEPTIDES AND CONJUGATES THEREOF” (Novartis AG, priority 2023, published 2025).
Counter-ions that a name gives are not always drawn. Starred links: 1 amine or outer side, 2 acyl side, 3 side chain; linkers in the order of their positions; H or OH if unused. Non-standard residues stand in square brackets, D forms with d. Residues, ends and D or L forms follow the SMILES beside them. Groups on a side chain read outwards from the residue. *: point of attachment. Piperazinyl(4-CH2COOH) = O=C(O)CN1CCN(*)CC1; AEF = NCCOc1ccc(C[C@H](N)C(=O)O)cc1; mTyr = N[C@@H](Cc1cccc(O)c1)C(=O)O; NMeF = CN[C@@H](Cc1ccccc1)C(=O)O; Ahp(2) = CCCCC[C@H](N)C(=O)O; NMeK = CN[C@@H](CCCCN)C(=O)O; Orn = NCCC[C@H](N)C(=O)O; Dab = NCC[C@H](N)C(=O)O; CO = O=C([*:1])[*:2]

Key:
human FAP = target: T1, human FAP (Homo sapiens, UniProt Q12884); assay: Enzymatic FAP competition assay (Z-Gly-Pro-AMC fluorescence), human FAP; format: biochemical; settings: read-out: h. FAP, Enz., IC50
T1 construct: the biotinylated His, Avi tag, human FAP (26-760, FAP-H82Q6); His; Avi tag (biotinylated); purchased AcroBiosystems FAP-H82Q6
T1 sequence (Q12884 26-760): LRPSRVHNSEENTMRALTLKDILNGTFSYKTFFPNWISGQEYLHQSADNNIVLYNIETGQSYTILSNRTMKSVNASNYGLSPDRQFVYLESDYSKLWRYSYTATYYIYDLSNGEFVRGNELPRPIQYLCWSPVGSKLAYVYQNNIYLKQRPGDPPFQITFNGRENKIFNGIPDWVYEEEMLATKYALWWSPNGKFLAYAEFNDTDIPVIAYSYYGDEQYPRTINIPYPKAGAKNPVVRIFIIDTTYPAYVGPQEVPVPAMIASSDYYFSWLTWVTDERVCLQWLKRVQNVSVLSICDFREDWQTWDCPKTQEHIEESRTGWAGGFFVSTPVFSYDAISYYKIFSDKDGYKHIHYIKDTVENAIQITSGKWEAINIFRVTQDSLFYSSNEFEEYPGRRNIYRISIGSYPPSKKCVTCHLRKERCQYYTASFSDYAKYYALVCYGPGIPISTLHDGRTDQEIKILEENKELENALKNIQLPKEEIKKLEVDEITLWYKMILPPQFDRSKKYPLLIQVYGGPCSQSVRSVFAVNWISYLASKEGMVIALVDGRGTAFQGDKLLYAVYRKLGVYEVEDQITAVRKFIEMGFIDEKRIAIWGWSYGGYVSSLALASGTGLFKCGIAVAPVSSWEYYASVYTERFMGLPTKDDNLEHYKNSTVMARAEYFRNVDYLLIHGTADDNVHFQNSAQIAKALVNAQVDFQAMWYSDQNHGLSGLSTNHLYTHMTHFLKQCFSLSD
Description: (§1) Peptide potencies (IC50) to inhibit the FAP enzymatic activity were determined using a fluorescence-based assay towards the biotinylated His, Avi tag, human FAP (26-760, FAP-H82Q6) and the biotinylated His, Avi tag, mouse FAP (26-761, FAP-M82Q5). Standard assay conditions consisted of 20 μL total volume in white 384-well plates (Greiner, Ref. 784075), in 50 mM phosphate buffer pH 7.5 containing 150 mM NaCl, 0.05% Tween20 and 1% final DMSO. Tested peptides at 14 different concentrations up to 1 μM were added to 0.01 nM human or mouse FAP. The peptides were incubated for 24 hours together with the protein before adding the substrate 50 μM Z-Gly-Pro-AMC (I-1145 from Bachem). Samples were then incubated at 22-24° C. for 4 h before reading the fluorescence at excitation wavelength of 380 nm and emission wavelength of 460 nm using the Tecan Infinite® M1000 PRO. The high control (100% activity) was not containing any peptide, and an internal potent peptide was added at 10 μM concentration for the low control (100% inhibition). IC50 values were calculated by curve fitting using an in-house developed software (Novartis Helios software application) using the method described by Fomenko et al., 2006 (regression algorithms for nonlinear dose-response curve fitting). Following normalization of activity values for the wells to % inhibition (% inhibition=[(high control-sample)/(high control-low control)]x 100). IC50 fitting was carried out from the duplicated points.

mouse FAP [1] = target: T2, mouse FAP (Mus musculus, UniProt P97321); assay: Surface plasmon resonance (SPR) for peptide affinity, mouse FAP; format: binding
T2 construct: biotinylated His, Avi tag, mouse FAP (26-761, FAP-M82Q5); His; Avi tag (biotinylated); purchased AcroBiosystems FAP-M82Q5
T2 sequence (P97321 26-761): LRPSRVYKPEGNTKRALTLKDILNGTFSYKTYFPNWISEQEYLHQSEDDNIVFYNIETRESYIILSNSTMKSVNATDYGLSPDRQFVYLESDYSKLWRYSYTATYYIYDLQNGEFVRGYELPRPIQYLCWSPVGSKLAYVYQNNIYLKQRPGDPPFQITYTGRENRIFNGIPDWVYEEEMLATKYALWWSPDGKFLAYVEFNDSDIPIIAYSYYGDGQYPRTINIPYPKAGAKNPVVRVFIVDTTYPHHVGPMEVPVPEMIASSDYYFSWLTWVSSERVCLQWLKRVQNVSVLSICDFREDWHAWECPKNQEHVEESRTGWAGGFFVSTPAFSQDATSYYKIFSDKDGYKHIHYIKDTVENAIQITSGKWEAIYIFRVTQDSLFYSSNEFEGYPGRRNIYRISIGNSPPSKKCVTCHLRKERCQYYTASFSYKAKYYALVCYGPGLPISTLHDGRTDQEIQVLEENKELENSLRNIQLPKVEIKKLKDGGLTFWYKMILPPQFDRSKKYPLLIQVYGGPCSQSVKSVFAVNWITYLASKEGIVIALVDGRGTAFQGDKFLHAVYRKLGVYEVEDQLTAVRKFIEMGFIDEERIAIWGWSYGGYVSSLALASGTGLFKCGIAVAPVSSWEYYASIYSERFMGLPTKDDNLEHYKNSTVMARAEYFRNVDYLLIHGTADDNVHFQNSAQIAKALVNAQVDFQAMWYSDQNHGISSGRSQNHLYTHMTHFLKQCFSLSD
Description: Peptide affinities (KD) were determined by SPR using a Biacore™ 8K device (Cytiva) towards the following proteins: biotinylated His, Avi tag, human FAP (26-760, FAP-H82Q6), biotinylated His, Avi tag, mouse FAP (26-761, FAP-M82Q5), His tag, human DPP4 (34-766, DP4-H82E3), all purchased from AcroBiosystems and His tag, mouse DPP4 (29-760, 954-SE) from R&D Systems. The FAP proteins and their homologous were diluted to a concentration of 2 μg/mL into acetate buffer pH 5.5, then immobilized onto a CM5 sensorchip (Cytiva, BR-1005-30) to reach a response around 2000 R U. The running buffer HBS-EP+pH 7.6 (20× from Teknova CAT. No: H8022) contained 10 mM HEPES pH 7.6, 150 mM NaCl, 3 mM EDTA, 0.05% Tween20 and 2% DMSO. Experiments were carried out at 25° C. using a flow rate of 30 μL/min. Compounds were tested in single cycle kinetic mode at 8 different concentrations. Curve fitting was performed using the Biacore™ 8K evaluation software. The sensorgrams were fitted by applying a 1:1 binding model to calculate kinetic rate constants and equilibrium dissociation constants (KD).
For this assay, the setup had the same conditions (flow rate, running buffer, peptide dilution) as described above for the CM5 method. The oligo CAP reagent obtained in the CAPture Kit (Ref. 28920234) was 1/5 diluted into running buffer and used with a contact time of 300 s at a flow rate of 2 μL/min. The human and mouse FAP constructs described above were used (from AcroBiosystems or produced in house). The FAP proteins were diluted to a concentration of 2 μg/mL into acetate pH 5.5, 0.05% Tween20 and used with a contact time of 600 s at a flow rate of 10 μL/min. The peptides were tested with an association time of 280 s followed by a dissociation time of 3000 s at a flow rate of 30 μL/min. The regeneration was done using the regeneration solution (8 M guanidine-HCl, 1 M NaOH) as obtained with a contact time of 270 s at a flow rate of 10 μL/min. […] The compounds marked with an asterisk were tested against human and mouse DDP4.

mouse FAP [2] = target: T2, mouse FAP; assay: Enzymatic FAP competition assay (Z-Gly-Pro-AMC fluorescence), mouse FAP; format: biochemical; settings: read-out: m. FAP, Enz., IC50
Description: as §1

| SMILES | IC50 (human FAP) [pM] | Kd (mouse FAP [1]) [pM] | IC50 (mouse FAP [2]) [pM] |
| --- | --- | --- | --- |
| CCCCC[C@@H]1NC(=O)[C@H](Cc2ccc(O)cc2)NC(=O)[C@H](Cc2ccccc2)N(C)C(=O)CNC(=O)CNC(=O)[C@H]2CCCN2C(=O)[C@H](CC(=O)O)NC(=O)[C@H](CCCCNC(=O)N2CCN(CC(=O)O)CC2)N(C)C(=O)CNC(=O)[C@H](Cc2c[nH]c3ccccc23)NC1=O [Example A3, 2-((9S,12S,15S,18S,24S,27S,32aR)-18-((1H-indol-3-yl)methyl)-9-benzyl-24-(4-(4-(carboxymethyl)piperazine-1-carboxamido)butyl)-12-(4-hydroxybenzyl)-8,23-dimethyl-1,4,7,10,13,16,19,22,25,28-decaoxo-15-pentyldotriacontahydropyrrolo[1,2-a][1,4,7,10,13,16,19,22,25,28]decaazacyclotriacontin-27-yl)acetic acid TFA salt] (cyclo([Ahp(2)]WG[NMeK]([CO-Piperazinyl(4-CH2COOH)])D[dP]GG[NMeF]Y)) | 760 | 1900 | 950 |
| CCCCC[C@@H]1NC(=O)[C@H](Cc2ccc(O)cc2)NC(=O)[C@H](Cc2ccccc2)N(C)C(=O)CNC(=O)CNC(=O)[C@H]2CCCN2C(=O)[C@H](CC(=O)O)NC(=O)[C@H](CCCNC(=O)N2CCN(CC(=O)O)CC2)NC(=O)CNC(=O)[C@H](Cc2c[nH]c3ccccc23)NC1=O [Example A4, Gly-Gly-NMePhe-Tyr-Ahp-Trp-Gly-Orn(COPipzaa)-Asp-D-Pro, TFA salt] (cyclo([Ahp(2)]WG[Orn]([CO-Piperazinyl(4-CH2COOH)])D[dP]GG[NMeF]Y)) | 203 | 470 | 570 |
| CCCCC[C@@H]1NC(=O)[C@H](Cc2ccc(O)cc2)NC(=O)[C@H](Cc2ccccc2)N(C)C(=O)CNC(=O)CNC(=O)[C@H]2CCCN2C(=O)[C@H](CC(=O)O)NC(=O)[C@H](CCNC(=O)N2CCN(CC(=O)O)CC2)NC(=O)CNC(=O)[C@H](Cc2c[nH]c3ccccc23)NC1=O [Example A5, Gly-Gly-NMePhe-Tyr-Ahp-Trp-Gly-Dab(COPipzaa)-Asp-D-Pro] (cyclo([Ahp(2)]WG[Dab]([CO-Piperazinyl(4-CH2COOH)])D[dP]GG[NMeF]Y)) | 70 | 620 | 500 |
| CCCCC[C@@H]1NC(=O)[C@H](Cc2ccc(OCCN)cc2)NC(=O)[C@H](Cc2ccccc2)N(C)C(=O)CNC(=O)CNC(=O)[C@H]2CCCN2C(=O)[C@H](CC(=O)O)NC(=O)[C@H](CCCCNC(=O)N2CCN(CC(=O)O)CC2)NC(=O)CNC(=O)[C@H](Cc2c[nH]c3ccccc23)NC1=O [Example A6, 2-((9S,12S,15S,18S,24S,27S,32aR)-18-((1H-indol-3-yl)methyl)-12-(4-(2-aminoethoxy)benzyl)-9-benzyl-24-(4-(4-(carboxymethyl)piperazine-1-carboxamido)butyl)-8-methyl-1,4,7,10,13,16,19,22,25,28-decaoxo-15-pentyldotriacontahydropyrrolo[1,2-a][1,4,7,10,13,16,19,22,25,28]decaazacyclotriacontin-27-yl)acetic acid TFA salt] (cyclo([AEF][Ahp(2)]WGK([CO-Piperazinyl(4-CH2COOH)])D[dP]GG[NMeF])) | 71 | 188 | 178 |
| CCCCC[C@@H]1NC(=O)[C@H](Cc2ccc(O)cc2)NC(=O)[C@H](Cc2ccccc2)N(C)C(=O)CNC(=O)CNC(=O)[C@H]2CCCN2C(=O)[C@H](CC(=O)O)NC(=O)[C@H](Cc2cccc(O)c2)NC(=O)CNC(=O)[C@H](Cc2c[nH]c3ccccc23)NC1=O [Example A14, Gly-Gly-NMePhe-Tyr-Ahp-Trp-Gly-F(3OH)-Asp-D-Pro] (cyclo([Ahp(2)]WG[mTyr]D[dP]GG[NMeF]Y)) | 92 | 239 | 370 |
| CCCCC[C@@H]1NC(=O)[C@H](Cc2ccc(O)cc2)NC(=O)[C@H](Cc2ccccc2)N(C)C(=O)CNC(=O)[C@H](CC(=O)O)NC(=O)[C@H]2CCCN2C(=O)[C@H](CC(=O)O)NC(=O)[C@H](Cc2ccc(O)cc2)NC(=O)CNC(=O)[C@H](Cc2c[nH]c3ccccc23)NC1=O [Example A18, Asp-Gly-NMePhe-Tyr-Ahp-Trp-Gly-Tyr-Asp-D-Pro] (cyclo([Ahp(2)]WGYD[dP]DG[NMeF]Y)) | 270 | 222 | 710 |
| CCCCC[C@@H]1NC(=O)[C@H](Cc2ccc(O)cc2)NC(=O)[C@H](Cc2ccccc2)N(C)C(=O)CNC(=O)[C@H](CO)NC(=O)[C@H]2CCCN2C(=O)[C@H](CC(=O)O)NC(=O)[C@H](Cc2ccc(O)cc2)NC(=O)CNC(=O)[C@H](Cc2c[nH]c3ccccc23)NC1=O [Example A19, Ser-Gly-NMePhe-Tyr-Ahp-Trp-Gly-Tyr-Asp-D-Pro] (cyclo([Ahp(2)]WGYD[dP]SG[NMeF]Y)) | 145 | 260 | 660 |
| CCCCC[C@@H]1NC(=O)[C@H](Cc2ccc(O)cc2)NC(=O)[C@H](Cc2ccccc2)NC(=O)[C@H](CCC(=O)O)NC(=O)[C@H](CCCCN)NC(=O)[C@H]2CCCN2C(=O)[C@H](CC(=O)O)NC(=O)[C@H](Cc2ccc(O)cc2)NC(=O)CNC(=O)[C@H](Cc2c[nH]c3ccccc23)NC1=O [Example A20, Lys-Glu-Phe-Tyr-Ahp-Trp-Gly-Tyr-Asp-D-Pro] (cyclo([Ahp(2)]WGYD[dP]KEFY)) | 2600 | 8700 | 8700 |
